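96-well plates; 48 h exposure; 5 concentrations. Endpoints by linear interpolation between flanking doses. Not reached: highest tested concentration assigned. The concentration for 50% growth inhibition is given as GI50.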 The source made the active and inactive calls. No stated cut-off is given here; in the data, active = GI50 up to about 1.1 µM and inactive = higher.
Columns and labels:
Assay in all cases: NCI tumour cell line growth inhibition, 48 h
[1] = system: ACHN
[2] = system: HCC 2998
[3] = system: HCT-116
[4] = system: HOP-92
[5] = system: Hs-578T
[6] = system: K562
[7] = system: Malme-3M
[8] = system: NCI-H522
[9] = system: OVCAR-3
[10] = system: OVCAR-4
[11] = system: SF-268
[12] = system: SK-MEL-28
[13] = system: SK-MEL-2
[14] = system: SK-OV-3
[15] = system: SNB-75
[16] = system: SR
[17] = system: TK-10
[18] = system: UACC-257
[19] = system: MCF7
[20] = system: SF-539

Row | Structure (SMILES) | GI50 [1] | GI50 [2] | GI50 [3] | GI50 [4] | GI50 [5] | GI50 [6] | GI50 [7] | GI50 [8] | GI50 [9] | GI50 [10] | GI50 [11] | GI50 [12] | GI50 [13] | GI50 [14] | GI50 [15] | GI50 [16] | GI50 [17] | GI50 [18] | GI50 [19] | GI50 [20]
1 | O=C1Nc2ccccc2C1S(=O)(=O)c1ccccc1 (stereo unspecified) | > 100 µM (inactive) | > 100 µM (inactive) | > 100 µM (inactive) | > 100 µM (inactive) | > 100 µM (inactive) | > 100 µM (inactive) | > 100 µM (inactive) | > 100 µM (inactive) | > 100 µM (inactive) | > 100 µM (inactive) | > 100 µM (inactive) | > 100 µM (inactive) | > 100 µM (inactive) | > 100 µM (inactive) | > 100 µM (inactive) | > 100 µM (inactive) | > 100 µM (inactive) | > 100 µM (inactive) |  | 
2 | COc1cccc(CCCNC(=O)Cc2cc(OC)c(OC)cc2CO)c1 | > 100 µM (inactive) | > 100 µM (inactive) | > 100 µM (inactive) | > 100 µM (inactive) | > 100 µM (inactive) | > 100 µM (inactive) | > 100 µM (inactive) |  | > 100 µM (inactive) | > 100 µM (inactive) |  | > 100 µM (inactive) | > 100 µM (inactive) |  | > 100 µM (inactive) | > 100 µM (inactive) | > 100 µM (inactive) | > 100 µM (inactive) |  | 
3 | O=P(O)(O)CC1OC(CO)C(O)C1O (stereo unspecified) | > 100 µM (inactive) | > 100 µM (inactive) | > 100 µM (inactive) | > 100 µM (inactive) | > 100 µM (inactive) | > 100 µM (inactive) | > 100 µM (inactive) | > 100 µM (inactive) | > 100 µM (inactive) | > 100 µM (inactive) | > 100 µM (inactive) | > 100 µM (inactive) | > 100 µM (inactive) | > 100 µM (inactive) | > 100 µM (inactive) |  | > 100 µM (inactive) | > 100 µM (inactive) | > 100 µM (inactive) | > 100 µM (inactive)
4 | O=C1C=CC(=O)c2c1cc1ccccc1c2O | 2.84 µM (inactive) | 17.7 µM (inactive) | 1.85 µM (inactive) | 1.8 µM (inactive) | 8.22 µM (inactive) | 0.767 µM (active) | 6.18 µM (inactive) | 1.9 µM (inactive) | 2.12 µM (inactive) | 2.33 µM (inactive) | 8.24 µM (inactive) | 9.25 µM (inactive) | 14.4 µM (inactive) | 18.4 µM (inactive) | 18.1 µM (inactive) | 0.428 µM (active) | 4.24 µM (inactive) | 3.18 µM (inactive) |  | 11.6 µM (inactive)
5 | COC(=O)/C=C\COCC1C2CCC(=O)C21 (stereo unspecified) | 11.6 µM (inactive) | > 25 µM (inactive) | 16.3 µM (inactive) | 5.77 µM (inactive) |  | 8.28 µM (inactive) | 4.67 µM (inactive) | 3.86 µM (inactive) | 8.41 µM (inactive) | > 25 µM (inactive) | 4.68 µM (inactive) | > 25 µM (inactive) | > 25 µM (inactive) | > 25 µM (inactive) | > 25 µM (inactive) | 8.3 µM (inactive) | 13 µM (inactive) | 10.4 µM (inactive) | 10.3 µM (inactive) | 7.16 µM (inactive)
6 | CCNC1CC(C(C)(C)NCC)CC=C1C (stereo unspecified) |  | > 100 µM (inactive) | > 100 µM (inactive) | > 100 µM (inactive) |  | > 100 µM (inactive) |  | > 100 µM (inactive) | > 100 µM (inactive) | > 100 µM (inactive) | > 100 µM (inactive) | > 100 µM (inactive) |  | > 100 µM (inactive) | > 100 µM (inactive) | > 100 µM (inactive) | > 100 µM (inactive) | > 100 µM (inactive) | > 100 µM (inactive) | > 100 µM (inactive)
7 | COc1ccc(/C=C2\NC(=S)N(/C=C3\C(=O)Oc4ccccc4C3=O)C2=O)cc1OC | 91 µM (inactive) | > 100 µM (inactive) | > 100 µM (inactive) | 73.6 µM (inactive) | 87.5 µM (inactive) | > 100 µM (inactive) |  | 22.6 µM (inactive) | 87.3 µM (inactive) | > 100 µM (inactive) | > 100 µM (inactive) |  | > 100 µM (inactive) | > 100 µM (inactive) | 32.4 µM (inactive) |  | > 100 µM (inactive) | > 100 µM (inactive) | > 100 µM (inactive) | > 100 µM (inactive)
8 | NS(=O)(=O)c1cc2c(cc1Cl)N=C(CCC(=O)O)NS2(=O)=O | > 100 µM (inactive) |  | > 100 µM (inactive) | > 100 µM (inactive) | > 100 µM (inactive) | > 100 µM (inactive) | > 100 µM (inactive) | > 100 µM (inactive) | > 100 µM (inactive) | > 100 µM (inactive) | > 100 µM (inactive) | > 100 µM (inactive) | > 100 µM (inactive) | > 100 µM (inactive) | > 100 µM (inactive) |  | > 100 µM (inactive) | > 100 µM (inactive) | > 100 µM (inactive) | > 100 µM (inactive)
